From US12649751B2 (Arcus Biosciences, Inc., priority 2022, dated 2026) come the findings set out here.

Where two headings read alike, the source gives them in different places. Where only a bound is given, the exact number is not on record here.

Assay [1] concerns p-SLP-76 (Ser376) in Jurkat cells. The assay can be described thus: pSLP76 Cellular Assay (AlphaLISA SureFire Ultra p-SLP-76 (Ser376), anti-CD3 activated Jurkat cells). It counts as cell-based. The settings on record: read-out: Cellular Potency. A digest of the protocol:
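Read-out is AlphaLISA p-SLP-76 (Ser376) signal at 570 nm in Jurkat lysates, with IC50 fitted by 4-parameter logistic. Cells were starved overnight, exposed 1 h at 37 °C to 22 twofold compound dilutions in HBSS, then activated 45 min with anti-CD3 (0.025 mg/ml stock added).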
(In Alpha technology, singlet oxygen from a donor bead excites a nearby acceptor bead.)

The next assay addresses HPK1 (Homo sapiens, UniProt Q92918). Nature of the assay: HPK1 Biochemical Assay (ADP-Glo luminescence; low ATP 10 μM or high ATP 200 μM).
The mark [2] stands for this setting: Homo sapiens, Jurkat cells, anti-CD3 stimulation, pSLP76.
[3] abbreviates: 2 nM HPK1, 10 μM ATP, read-out: Biochemical Potency (low ATP).
[4] abbreviates: Homo sapiens, pSLP76 (Ser376) AlphaLISA, anti-CD3 activated Jurkat cells.
The mark [5] stands for this setting: HPK1 ADP-Glo assay, high ATP (200 μM ATP, 5 nM HPK1), read-out: Biochemical Potency (high ATP).

Chain of HPK1 (Q92918 whole entry, species assumed): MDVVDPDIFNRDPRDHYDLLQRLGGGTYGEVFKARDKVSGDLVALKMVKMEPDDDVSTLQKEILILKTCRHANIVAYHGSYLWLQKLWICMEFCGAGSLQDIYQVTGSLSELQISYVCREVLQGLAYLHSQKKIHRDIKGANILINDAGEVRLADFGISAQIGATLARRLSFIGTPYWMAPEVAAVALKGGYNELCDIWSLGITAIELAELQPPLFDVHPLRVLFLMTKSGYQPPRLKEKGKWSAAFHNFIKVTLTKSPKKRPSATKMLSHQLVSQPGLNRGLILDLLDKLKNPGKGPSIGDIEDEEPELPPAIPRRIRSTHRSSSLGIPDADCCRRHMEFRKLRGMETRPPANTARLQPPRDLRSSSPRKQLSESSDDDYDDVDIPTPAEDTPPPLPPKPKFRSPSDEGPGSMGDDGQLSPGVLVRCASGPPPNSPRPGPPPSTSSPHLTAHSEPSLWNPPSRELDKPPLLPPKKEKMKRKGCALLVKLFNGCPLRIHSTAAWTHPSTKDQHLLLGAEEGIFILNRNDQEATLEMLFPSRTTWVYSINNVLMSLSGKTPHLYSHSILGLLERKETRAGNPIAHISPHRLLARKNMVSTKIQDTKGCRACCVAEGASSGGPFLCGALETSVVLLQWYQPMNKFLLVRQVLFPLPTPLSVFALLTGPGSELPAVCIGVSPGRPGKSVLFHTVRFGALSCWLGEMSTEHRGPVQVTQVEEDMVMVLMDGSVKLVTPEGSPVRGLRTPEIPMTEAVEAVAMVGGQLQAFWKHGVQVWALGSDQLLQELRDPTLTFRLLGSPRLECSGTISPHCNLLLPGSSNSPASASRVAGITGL

On to `CC(c1nc(Nc2cc3nc(-c4c(F)cccc4F)sc3cn2)ccc1N1CCOCC1)N(C)C` (centres unmarked) [Example 277, N-[2-(2,6-Difluorophenyl)-[1,3]thiazolo[5,4-c]pyridin-6-yl]-6-[1-(dimethylamino)ethyl]-5-(morpholin-4-yl)pyridin-2-amine], for which the IC50 in assay [1] (setting [2]) is 1 to 5 µM; at HPK1 (setting [3]) it was less than 0.1 µM.
Take `CN1C[C@@H]2C[C@H]1CN2c1cc(Cl)cc(Nc2cc3nc(-c4ccnc(C(C)(C)O)c4)sc3cn2)n1` [Example 333]: the IC50 in assay [1] (setting [4]) was 0.1 to 1 µM; on HPK1 (setting [5]), less than 0.1 µM.
`Cc1cc(Nc2cc3nc(-c4cccc(C(=O)N(C)[C@@H](C)CO)c4)sc3cn2)nc(N2C[C@@H]3C[C@H]2CN3CC2CC2)n1` [Example 560]: the IC50 (in assay [1] (setting [4]); on HPK1 (setting [5])) was less than 0.1 µM each time.
For `Cc1cccnc1-c1nc2cc(Nc3ccc(C4CC4)c(CN4CCCC4)n3)ncc2s1` [Example 262, 5-Cyclopropyl-N-[2-(3-methylpyridin-2-yl)-[1,3]thiazolo[5,4-c]pyridin-6-yl]-6-[(pyrrolidin-1-yl)methyl]pyridin-2-amine], the IC50 in assay [1] (setting [2]) is 1 to 5 µM; on HPK1 (setting [3]), less than 0.1 µM.
Take `CCN1C[C@@H]2C[C@H]1CN2c1nc(C)cc(Nc2cc3nc(-c4cncc(N[C@H](C)c5ccccc5)c4)sc3cn2)n1` [Example 471]: the IC50 in assay [1] (setting [4]) is 0.1 to 1 µM; at HPK1 (setting [5]) it was less than 0.1 µM.
As to `Cc1cc(Nc2cc3nc(-c4cccc(C(=O)N(C)CC5CC5)c4)sc3cn2)nc(N2C[C@@H]3C[C@H]2CN3CCO)n1` [Example 558], the IC50 (in assay [1] (setting [4]); on HPK1 (setting [5])) was less than 0.1 µM in each case.
Consider `Cc1cc(Nc2cc3nc(-c4cccc(-c5ncccc5C)c4)sc3cn2)nc(N2C[C@@H]3C[C@H]2CN3C)n1` [Example 586], for which the IC50 in assay [1] (setting [4]) is 0.1 to 1 µM; at HPK1 (setting [5]), less than 0.1 µM.
Turning to `COCCN(C)C(=O)c1cccc(-c2nc3cc(Nc4cc(C)nc(N5C[C@@H]6C[C@H]5CN6C)n4)ncc3s2)c1` [Example 566], the IC50 in assay [1] (setting [4]) is 0.1 to 1 µM; on HPK1 (setting [5]), less than 0.1 µM.
`Cc1cc(Nc2cc3nc(-c4ccnc(C5(O)CCCC5)c4)sc3cn2)nc(N2C[C@@H]3C[C@H]2CN3C)n1` [Example 397]: the IC50 (in assay [1] (setting [4]); on HPK1 (setting [5])) was less than 0.1 µM each time.
Turning to `Cc1cccnc1-c1nc2cc(Nc3cncc(N4C[C@@H]5C[C@H]4CN5)n3)ncc2s1` [Example 144, 6-[(1S,4S)-2,5-Diazabicyclo[2.2.1]heptan-2-yl]-N-[2-(3-methylpyridin-2-yl)-[1,3]thiazolo[5,4-c]pyridin-6-yl]pyrazin-2-amine], the IC50 was 0.1 to 1 µM in assay [1] (setting [2]) and less than 0.1 µM at HPK1 (setting [3]).
In the case of `CCN1C[C@@H]2C[C@H]1CN2c1nc(C)cc(Nc2cc3nc(-c4cncc(N5CCC(F)CC5)c4)sc3cn2)n1` [Example 470], the IC50 is 0.1 to 1 µM in assay [1] (setting [4]) and less than 0.1 µM at HPK1 (setting [5]).
Regarding `CC(=O)N1CCCc2c(-c3nc4cc(Nc5cc(C)nc(N6C[C@@H]7C[C@H]6CN7C)n5)ncc4s3)cccc21` [Example 573], the IC50 in assay [1] (setting [4]) was in the range of 1 to 5 µM; at HPK1 (setting [5]), 0.1 to 1 µM.
As for `Cc1cc(Nc2cc3nc(-c4ccnc(C(C)C)c4)sc3cn2)nc(N2C[C@@H]3C[C@H]2CN3CCO)n1` [Example 354], the IC50 (in assay [1] (setting [4]); on HPK1 (setting [5])) was less than 0.1 µM in each case.
As to `Cc1cc(Nc2cc3nc(-c4cccc(C(=O)N(C)[C@H]5CCCOC5)c4)sc3cn2)nc(N2C[C@@H]3C[C@H]2CN3CCO)n1` [Example 543], the IC50 in assay [1] (pSLP76 (Ser376) AlphaLISA, anti-CD3 activated Jurkat cells) is less than 0.1 µM; on HPK1 (setting [5]) it was less than 0.1 µM.
Turning to `Cc1cc(Nc2cc3nc(-c4cnn(C(C)(C)C#N)c4)sc3cn2)nc(N2C[C@@H]3C[C@H]2CN3CCO)n1` [Example 355], the IC50 was 0.1 to 1 µM in assay [1] (setting [4]) and less than 0.1 µM at HPK1 (setting [5]).
As for `CCN1C[C@@H]2C[C@H]1CN2c1nc(C)cc(Nc2cc3nc(-c4cccc(C(=O)N(C)C5CCOCC5)c4)sc3cn2)n1` [Example 528], the IC50 was 0.1 to 1 µM in assay [1] (setting [4]) and less than 0.1 µM on HPK1 (setting [5]).
With `Cc1cc(Nc2cc3nc(-c4cncc(C5CC5)c4)sc3cn2)nc(N2C[C@@H]3C[C@H]2CN3CCO)n1` [Example 361], the IC50 in assay [1] (setting [4]) was 0.1 to 1 µM; at HPK1 (setting [5]), less than 0.1 µM.
As for `Cc1ccnn1-c1nc2cc(Nc3ccc(C4CCOC4)c(CN4CCCC4)n3)ncc2s1` (centres unmarked) [Example 256, N-[2-(5-Methyl-1H-pyrazol-1-yl)-[1,3]thiazolo[5,4-c]pyridin-6-yl]-5-(oxolan-3-yl)-6-[(pyrrolidin-1-yl)methyl]pyridin-2-amine], the IC50 (in assay [1] (setting [2]); on HPK1 (setting [3])) was less than 0.1 µM throughout.
On to `Cc1cccnc1-c1nc2cc(Nc3ccc(C)c(N4C[C@H](N)C[C@H]4CO)n3)ncc2s1` [Example 69, [(2S,4R)-4-Amino-1-(3-methyl-6-{[2-(3-methylpyridin-2-yl)-[1,3]thiazolo[5,4-c]pyridin-6-yl]amino}pyridin-2-yl)pyrrolidin-2-yl]methanol], for which the values for the IC50 (in assay [1] (setting [2]); on HPK1 (setting [3])) were more than 5 µM and less than 0.1 µM, respectively.
On to `Cc1cc(Nc2cc3nc(-c4ccnc(N5CCCOCC5)c4)sc3cn2)nc(N2C[C@@H]3C[C@H]2CN3CCO)n1` [Example 449], for which the values for the IC50 (in assay [1] (setting [4]); on HPK1 (setting [5])) were 0.1 to 1 µM and less than 0.1 µM, respectively.
Consider `CN1C[C@@H]2C[C@H]1CN2c1cccc(Nc2cc3nc(-c4cccc(C(C)(C)O)c4)sc3cn2)n1` [Example 132, 2-{3-[6-({6-[(1S,4S)-5-Methyl-2,5-diazabicyclo[2.2.1]heptan-2-yl]pyridin-2-yl}amino)-[1,3]thiazolo[5,4-c]pyridin-2-yl]phenyl}propan-2-ol], for which the IC50 (in assay [1] (setting [2]); at HPK1 (setting [3])) was less than 0.1 µM in each case.
Take `Cc1cc(Nc2cc3nc(-c4ccc5c(c4)S(=O)(=O)N(C)C5)sc3cn2)nc(N2C[C@@H]3C[C@H]2CN3C)n1` [Example 374]: the IC50 in assay [1] (setting [4]) lay within 5 to 25 µM; at HPK1 (setting [5]) it was 0.1 to 1 µM.
Regarding `Cc1cccnc1-c1nc2cc(Nc3ccc(C)c(N4CC[C@@H](N)C4)n3)ncc2s1` [Example 74, 6-[(3R)-3-Aminopyrrolidin-1-yl]-5-methyl-N-[2-(3-methylpyridin-2-yl)-[1,3]thiazolo[5,4-c]pyridin-6-yl]pyridin-2-amine], the IC50 in assay [1] (setting [2]) was more than 5 µM; at HPK1 (setting [3]) it was less than 0.1 µM.
Take `Cc1cc(Nc2cc3nc(-c4ccnc(C(C)(C)O)c4)sc3cn2)nc(N2C[C@@H]3C[C@H]2CN3C)n1` [Example 406]: the IC50 in assay [1] (setting [4]) was 0.1 to 1 µM; at HPK1 (setting [5]), less than 0.1 µM; on HPK1 (HPK1 ADP-Glo assay, low ATP (10 μM ATP, 2 nM HPK1), read-out: Biochemical Potency (low ATP)), less than 0.1 µM.
Regarding `Cc1cc(Nc2cc3nc(-c4c(C)cccc4F)sc3cn2)nc(O[C@H]2CCNC2)c1` [Example 178, N-[2-(2-Fluoro-6-methylphenyl)-[1,3]thiazolo[5,4-c]pyridin-6-yl]-4-methyl-6-[(3S)-pyrrolidin-3-yloxy]pyridin-2-amine], the figures for the IC50 (in assay [1] (setting [2]); on HPK1 (setting [3])) were 0.1 to 1 µM and less than 0.1 µM, respectively.
As for `Cc1cc(Nc2cc3nc(-c4cccnc4)sc3cn2)nc(N2C[C@@H]3C[C@H]2CN3Cc2ccccc2)n1` [Example 490], the IC50 in assay [1] (setting [4]) is 0.1 to 1 µM; on HPK1 (setting [5]) it was less than 0.1 µM.
Regarding `Cc1cc(Nc2cc3nc(-c4ccnc(C(O)C5CC5)c4)sc3cn2)nc(N2C[C@@H]3C[C@H]2CN3CCO)n1` (stereo partly drawn) [Example 307, 2-[(1S,4S)-5-(4-{2-[2-(cyclopropylhydroxymethyl)-4-pyridyl]-3-thia-1,5-diaza-6-indenylamino}-6-methyl-2-pyrimidinyl)-2,5-diazabicyclo[2.2.1]hept-2-yl]ethanol], the IC50 (in assay [1] (setting [4]); on HPK1 (setting [5])) was less than 0.1 µM each time.
On to `CCN1C[C@@H]2C[C@H]1CN2c1nc(C)cc(Nc2cc3nc(-c4cccc(C(=O)N5CCOC[C@H]5C)c4)sc3cn2)n1` [Example 527], for which the IC50 was 0.1 to 1 µM in assay [1] (setting [4]) and less than 0.1 µM at HPK1 (setting [5]).
On to `Cc1cccnc1-c1nc2cc(Nc3cc(C4CCOCC4)nc(N4C[C@@H]5C[C@H]4CN5C)n3)ncc2s1` [Example 249, 2-[(1S,4S)-5-Methyl-2,5-diazabicyclo[2.2.1]heptan-2-yl]-N-[2-(3-methylpyridin-2-yl)-[1,3]thiazolo[5,4-c]pyridin-6-yl]-6-(oxan-4-yl)pyrimidin-4-amine], for which the IC50 was 0.1 to 1 µM in assay [1] (setting [2]); less than 0.1 µM on HPK1 (setting [3]); less than 0.1 µM at HPK1 (5 nM HPK1, 200 μM ATP, read-out: Biochemical Potency (high ATP)).
As to `CN(C)Cc1ccc(N2CCOCC2)c(Nc2cc3nc(-c4c(F)cccc4F)sc3cn2)n1` [Example 276, N-[2-(2,6-Difluorophenyl)-[1,3]thiazolo[5,4-c]pyridin-6-yl]-6-[(dimethylamino)methyl]-3-(morpholin-4-yl)pyridin-2-amine], the IC50 (in assay [1] (setting [2]); at HPK1 (setting [3])) was more than 5 µM each time.
As to `Cc1cc(-c2nc3cc(Nc4ccc(C5CCOCC5)c(CN5CCC(F)(F)C5)n4)ncc3s2)ccn1` [Example 220, 6-[(3,3-Difluoropyrrolidin-1-yl)methyl]-N-[2-(2-methylpyridin-4-yl)-[1,3]thiazolo[5,4-c]pyridin-6-yl]-5-(oxan-4-yl)pyridin-2-amine], the IC50 was 0.1 to 1 µM in assay [1] (setting [2]) and less than 0.1 µM on HPK1 (setting [3]).
Turning to `Cc1cccnc1-c1nc2cc(Nc3cccc(C4CCN(C)CC4)n3)ncc2s1` [Example 115, 6-(1-Methylpiperidin-4-yl)-N-[2-(3-methylpyridin-2-yl)-[1,3]thiazolo[5,4-c]pyridin-6-yl]pyridin-2-amine], the IC50 in assay [1] (setting [2]) is more than 5 µM; at HPK1 (setting [3]), less than 0.1 µM.
With `Cc1cc(Nc2cc3nc(-c4cccc(C(=O)N5C[C@H]6C[C@@H]5CO6)c4)sc3cn2)nc(N2C[C@@H]3C[C@H]2CN3CCO)n1` [Example 563], the results for the IC50 (in assay [1] (setting [4]); on HPK1 (setting [5])) were 0.1 to 1 µM and less than 0.1 µM, respectively.
